From PubChem BioAssay (NCI) come the findings set out here.

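Interpolation was linear, between the two tested concentrations surrounding the appropriate level; five concentrations were tested over 48 hours in 96-well plates. At the TGI there is no net growth.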 Where only a bound is given, the exact number is not on record here.

Assay in all cases: NCI anticancer screen, dose series, 48 h
The test system of experiment [1] is CCRF-CEM leukemia.
Experiment [2] concerns RXF 393 renal.
The subject of experiment [3] is 786-0 renal.
Experiment [4] has as its system OVCAR-3 ovarian.
Experiment [5] deals with SK-MEL-28 melanoma.
The subject of experiment [6] is HCT-15 colon.
Experiment [7] relates to MALME-3M melanoma.
In experiment [8] the test system is SK-OV-3 ovarian.
Experiment [9] has as its system BT-549 breast.
Experiment [10] concerns MDA-MB-435.

Take `CC(C)(C)OC(=O)NCCCCC1NC(=O)[C@@H]2Cc3c([nH]c4ccccc34)C(c3ccccc3)N2C1=O` (stereo not given in full): the TGI was > 100 µM in [1]; 42.2 µM in experiment [2]; 82.3 µM in experiment [3]; 49.2 µM in [4]; > 100 µM in [5]; > 100 µM in [6]. For the same compound, the TGI was > 100 µM in experiment [7], > 100 µM in experiment [8], 68.4 µM in [9] and > 100 µM in experiment [10].
